Broadly, the Ki is the equilibrium dissociation constant of an inhibitor or competing ligand from its target.

Each structure is given as a SMILES string.

The target of experiment [1] is T1, human adenosine A2a receptor (Homo sapiens, UniProt P29274).
T1 construct: expressed in transfected cells; host or cells: CHO-K1
Briefly: Adenosine A2a Receptor Functional Assay (A2AGAL2). The format is cell-based. The following applies: CHO-K1 cells, cAMP inducible beta-galactosidase reporter, 15 nM NECA agonist challenge. On the procedure: Adenosine A2a Receptor Functional Assay (A2AGAL2)
To initiate the functional assay, cryopreserved CHO-K1 cells overexpressing the human adenosine A2a receptor and containing a cAMP inducible beta-galactosidase reporter gene were thawed, centrifuged, DMSO containing media removed, and then seeded with fresh culture media into clear 384-well tissue culture treated plates (BD #353961) at a concentration of 10K cells/well. Prior to assay, these plates were cultured for two days at 37° C., 5% CO2, 90% Rh. On the day of the functional assay, culture media was removed and replaced with 45 uL assay medium (Hams/F-12 Modified (Mediatech # 10-080CV) supplemented w/0.1% BSA). Test compounds were diluted and 11 point curves created at a 1000× concentration in 100% DMSO. Immediately after addition of assay media to the cell plates, 50 nL of the appropriate test compound antagonist or agonist control curves were added to cell plates using a Cartesian Hummingbird. Compound curves were allowed to incubate at room temperature on cell plates for approximately 15 minutes before addition of a 15 nM NECA (Sigma E2387) agonist challenge (5 uL volume). A control curve of NECA, a DMSO/Media control, and a single dose of Forskolin (Sigma F3917) were also included on each plate. After additions, cell plates were allowed to incubate at 37° C., 5% CO2, 90% Rh for 5.5-6 hours. After incubation, media was removed, and cell plates were washed 1×50 uL with DPBS w/o Ca & Mg (Mediatech 21-031-CV). Into dry wells, 20 uL of 1× Reporter Lysis Buffer (Promega E3971 (diluted in dH2O from 5× stock)) was added to each well and plates frozen at −20° C. overnight. For β-galactosidase enzyme calorimetric assay, plates were thawed out at room temperature and 20 μL 2× assay buffer (Promega) was added to each well. Color was allowed to develop at 37° C., 5% CO2, 90% Rh for 1-1.5 h or until reasonable signal appeared. The calorimetric reaction was stopped with the addition of 60 μL/well 1M sodium carbonate. Plates were counted at 405 nm on a SpectraMax Microplate Reader (Molecular Devices). Data was analyzed in Microsoft Excel and IC/EC50 curves were fit using a standardized macro.

The target of experiment [2] is T2, human adenosine A1 receptor (Homo sapiens, UniProt P30542).
T2 construct: expressed in transfected cells; host or cells: CHO-K1
T2 sequence (P30542 1-326): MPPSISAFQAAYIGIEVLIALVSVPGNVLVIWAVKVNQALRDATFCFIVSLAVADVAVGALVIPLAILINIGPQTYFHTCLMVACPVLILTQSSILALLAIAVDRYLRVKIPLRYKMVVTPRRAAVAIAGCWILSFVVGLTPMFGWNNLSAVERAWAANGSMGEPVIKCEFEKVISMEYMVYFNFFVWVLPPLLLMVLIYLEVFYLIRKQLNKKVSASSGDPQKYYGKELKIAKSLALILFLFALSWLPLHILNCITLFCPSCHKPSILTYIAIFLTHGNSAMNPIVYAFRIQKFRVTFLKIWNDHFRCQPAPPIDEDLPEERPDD
Briefly: Adenosine A1 Receptor Functional Assay (A1GAL2). The following applies: CHO-K1 cells, cAMP inducible beta-galactosidase reporter, 4 nM r-PIA/1 uM Forskolin challenge. The format is cell-based. The procedure: Adenosine A1 Receptor Functional Assay (A1GAL2)
To initiate the functional assay, cryopreserved CHO-K1 cells overexpressing the human adenosine A1 receptor and containing a cAMP inducible beta-galactosidase reporter gene were thawed, centrifuged, DMSO containing media removed, and then seeded with fresh culture media into clear 384-well tissue culture treated plates (BD #353961) at a concentration of 10K cells/well. Prior to assay, these plates were cultured for two days at 37° C., 5% CO2, 90% Rh. On the day of the functional assay, culture media was removed and replaced with 45 uL assay medium (Hams/F-12 Modified (Mediatech # 10-080CV) supplemented w/0.1% BSA). Test compounds were diluted and 11 point curves created at a 1000× concentration in 100% DMSO. Immediately after addition of assay media to the cell plates, […] of the appropriate test compound antagonist or agonist control curves were added to cell plates using a Cartesian Hummingbird. Compound curves were allowed to incubate at room temperature on cell plates for approximately 15 minutes before addition of a 4 nM r-PIA (Sigma P4532)/1 uM Forskolin (Sigma F3917) agonist challenge (5 uL volume). A control curve of r-PIA in 1 uM Forskolin, a DMSO/Media control, and a single dose of Forskolin were also included on each plate. After additions, cell plates were allowed to incubate at 37° C., 5% CO2, 90% Rh for 5.5-6 hours. After incubation, media was removed, and cell plates were washed 1×50 uL with DPBS w/o Ca & Mg (Mediatech 21-031-CV).
Into dry wells, 20 uL of 1× Reporter Lysis Buffer (Promega E3971 (diluted in dH2O from 5× stock)) was added to each well and plates frozen at −20° C. overnight. For β-galactosidase enzyme calorimetric assay, plates were thawed out at room temperature and 20 μL 2× assay buffer (Promega) was added to each well. Color was allowed to develop at 37° C., 5% CO2, 90% Rh for 1-1.5 h or until reasonable signal appeared. The calorimetric reaction was stopped with the addition of 60 μL/well 1M sodium carbonate. Plates were counted at 405 nm on a SpectraMax Microplate Reader (Molecular Devices). Data was analyzed in Microsoft Excel and IC/EC50 curves were fit using a standardized macro.

T1 sequence (P29274 whole entry): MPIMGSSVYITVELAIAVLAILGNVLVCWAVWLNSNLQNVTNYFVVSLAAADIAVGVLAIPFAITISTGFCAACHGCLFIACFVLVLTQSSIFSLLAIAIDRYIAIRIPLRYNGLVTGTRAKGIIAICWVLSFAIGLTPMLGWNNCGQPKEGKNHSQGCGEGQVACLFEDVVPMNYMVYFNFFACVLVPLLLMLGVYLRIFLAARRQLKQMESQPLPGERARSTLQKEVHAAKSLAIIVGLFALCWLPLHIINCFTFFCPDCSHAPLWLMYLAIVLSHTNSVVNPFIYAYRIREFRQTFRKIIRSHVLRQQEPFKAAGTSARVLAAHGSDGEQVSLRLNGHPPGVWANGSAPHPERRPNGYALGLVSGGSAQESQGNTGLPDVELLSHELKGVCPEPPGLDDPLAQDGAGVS

Take `Nc1nc(-c2ccco2)nc2sc(CN3CCC(F)(F)C3)cc12` [Example 94, 6-(3,3-Difluoro-pyrrolidin-1-ylmethyl)-2-furan-2-yl-thieno[2,3-d]pyrimidin-4-ylamine]: the Ki was 0.00823 µM in experiment [1] and 1.24 µM in experiment [2].
With `Nc1nc(-c2ccon2)nc2sc(CN3CCOCC3)cc12` [Example 16, 2-Isoxazol-3-yl-6-morpholin-4-ylmethyl-thieno[2,3-d]pyrimidin-4-ylamine], the Ki in experiment [1] stood at 1.01 µM; in experiment [2] it was 0.678 µM.
Consider `Nc1nc(-c2ncco2)nc2sc(CN3CCOCC3)cc12` [Example 75, 6-Morpholin-4-ylmethyl-2-oxazol-2-yl-thieno[2,3-d]pyrimidin-4-ylamine], for which the Ki in experiment [1] turned out to be 0.356 µM; in experiment [2], 3.25 µM.
For the compound `COc1cccc(-c2nc(N)c3cc(CN4CCOCC4)sc3n2)c1` [Example 84, 2-(3-Methoxy-phenyl)-6-morpholin-4-ylmethyl-thieno[2,3-d]pyrimidin-4-ylamine], the Ki in experiment [1] is 0.373 µM; in experiment [2], 2.99 µM.
As to `Nc1nc(-c2nccs2)nc2sc(CN3CCOCC3)cc12` [Example 25, 6-Morpholin-4-ylmethyl-2-thiazol-2-yl-thieno[2,3-d]pyrimidin-4-ylamine], the Ki in experiment [1] amounted to 0.245 µM; in experiment [2], 2.73 µM.
Take `Nc1nc(-c2ccc3c(c2)OCO3)nc2sc(CN3CCC(F)CC3)cc12` [Example 76, 2-Benzo[1,3]dioxol-5-yl-6-(4-fluoro-piperidin-1-ylmethyl)-thieno[2,3-d]pyrimidin-4-ylamine]: the figures for the Ki in experiment [1] and in experiment [2] were 0.209 µM and 0.74 µM, respectively.
As to `C[C@@H]1CN(Cc2cc3c(N)nc(-c4cccc(C#N)c4)nc3s2)C[C@H](C)O1` [Example 17, 3-[4-Amino-6-(2,6-dimethyl-morpholin-4-ylmethyl)-thieno[2,3-d]pyrimidin-2-yl]-benzonitrile], the values for the Ki in experiment [1] and in experiment [2] were 0.15 µM and 1.07 µM, respectively.
For `CC(C)c1ccc(-c2nc(N)c3cc(CN4CCOCC4)sc3n2)o1` [Example 21, 2-(5-Isopropyl-furan-2-yl)-6-morpholin-4-ylmethyl-thieno[2,3-d]pyrimidin-4-ylamine], in that order: above 1.36 µM and above 0.594 µM.
Take `Nc1nc(-c2cc3ccccc3o2)nc2sc(CN3CCC(F)CC3)cc12` [Example 59, 2-Benzofuran-2-yl-6-(4-fluoropiperidin-1-ylmethyl)thieno[2,3-d]pyrimidin-4-ylamine]: the Ki in experiment [1] came out at 0.348 µM; in experiment [2], 0.634 µM.
As for `Nc1nc(-c2ccnc(Cl)c2)nc2sc(CN3CCCCC3)cc12` [Example 104, 2-(2-Chloro-pyridin-4-yl)-6-piperidin-1-ylmethyl-thieno[2,3-d]pyrimidin-4-ylamine], the values for the Ki in experiment [1] and in experiment [2] were 0.691 µM and 3.86 µM, respectively.
On to `Nc1nc(-c2cccc(F)c2)nc2sc(CN3CCC(F)CC3)cc12` [Example 60, 2-(3-Fluoro-phenyl)-6-(4-fluoro-piperidin-1-ylmethyl)-thieno[2,3-d]pyrimidin-4-ylamine], for which the Ki in experiment [1] was found to be 0.3 µM; in experiment [2] it was 1.25 µM.
As for `Nc1nc(-c2cc(F)cc(F)c2)nc2sc(CN3CCC(F)CC3)cc12` [Example 55, 2-(3,5-Difluoro-phenyl)-6-(4-fluoro-piperidin-1-ylmethyl)-thieno[2,3-d]pyrimidin-4-ylamine], the Ki in experiment [1] is 1.06 µM; in experiment [2], 3.41 µM.
Take `C[C@@H]1CCC[C@H](C)N1Cc1cc2c(N)nc(-c3cccc(C#N)c3)nc2s1` [Example 23, 3-[4-Amino-6-(2,6-dimethyl-piperidin-1-ylmethyl)-thieno[2,3-d]pyrimidin-2-yl]-benzonitrile]: the Ki in experiment [1] was determined as 0.0645 µM; in experiment [2], 0.464 µM.
Consider `Cc1csc(-c2nc(N)c3cc(CN4[C@H](C)CCC[C@@H]4C)sc3n2)n1` [Example 9, 6-(2,6-Dimethyl-piperidin-1-ylmethyl)-2-(4-methyl-thiazol-2-yl)-thieno[2,3-d]pyrimidin-4-ylamine], for which the Ki in experiment [1] was 0.0894 µM; in experiment [2], 0.297 µM.

Source of the values: patent US20100093702A1, “METHYLENE AMINES OF THIENO[2,3-d]PYRIMIDINE AND THEIR USE AS ADENOSINE A2a RECEPTOR ANTAGONISTS” (priority 2008, published 2010).
